Earlier results on 2 compounds are cited in patent EP0514015A1, “Control of sex differentiation in fish” (MERCK & CO. INC., priority 1991, dated 1992).

Structures are written as SMILES.

In one data set the test system is Oreochromis aureus. Particulars: tilapia, broad range of doses, fed to 3 to 5-day old fry for a period of 22 days.
Another data set concerns Cyprinus carpio. The note with it: carp, oral administration at 50ppm in feed from weeks 6 through 11 after hatching.

For `C#C[C@]1(O)CC[C@H]2[C@@H]3CCC4=CC(=O)CC[C@]4(C)[C@H]3CC[C@@]21C` [17-alpha-ethynyltestosterone], in the data set with Oreochromis aureus, the sex-reversing result was “effective”.

With `C[C@]12CCC(=O)C=C1CC[C@@H]1[C@@H]2CC[C@@]2(C)[C@H]1CC[C@]2(C)O` [17-alpha-methyltestosterone], the sex-reversing entry with Oreochromis aureus is recorded as “effective”. Besides, the phenotypic males entry in the data set with Cyprinus carpio was “greater than 90%”.
